According to BigSolDB 2.1:

Cc1ccc(S(=O)(=O)[O-])cc1Cl.[Na+]
Conditions	solubility (mole fraction)
in DMF, 280.6 K	0.0203
in DMF, 286.3 K	0.0206
in DMF, 291.3 K	0.0208
in DMF, 297.6 K	0.0212
in DMF, 304.8 K	0.0216
in DMF, 310.7 K	0.0223
in DMF, 314.8 K	0.0228
in DMF, 319 K	0.0235
in DMF, 322.1 K	0.024
in DMF, 327.6 K	0.0252
in DMF, 333.3 K	0.0268
in DMSO, 294 K	0.086
in DMSO, 299.6 K	0.0868
in DMSO, 304.9 K	0.0878
in DMSO, 310.6 K	0.0887
in DMSO, 314.5 K	0.0894
in DMSO, 319.2 K	0.0902
in DMSO, 323.5 K	0.0912
in DMSO, 330.2 K	0.0929
in DMSO, 335.2 K	0.0947
in formic acid, 283 K	0.037
in formic acid, 288.9 K	0.0383
in formic acid, 295.9 K	0.0398
in formic acid, 301.4 K	0.0415
in formic acid, 307.3 K	0.0431
in formic acid, 313 K	0.0446
in formic acid, 319.5 K	0.0458
in formic acid, 324.9 K	0.0475
in formic acid, 331.1 K	0.0491
in formic acid, 335.5 K	0.0503
in methanol, 287.1 K	0.00409
in methanol, 293 K	0.00447
in methanol, 297.1 K	0.0047
in methanol, 302.6 K	0.00498
in methanol, 306.1 K	0.00524
in methanol, 311.8 K	0.0055
in methanol, 316.7 K	0.00579
in methanol, 321.5 K	0.00607
in methanol, 327 K	0.00637
in methanol, 333.1 K	0.0067
in water, 281 K	0.00416
in water, 284 K	0.00437
in water, 288.1 K	0.00478
in water, 292.2 K	0.0053
in water, 296.5 K	0.00592
in water, 301.2 K	0.00661
in water, 305.6 K	0.00733
in water, 310.7 K	0.00835
in water, 314.6 K	0.0092
in water, 318.7 K	0.0101
in water, 322.4 K	0.0111
in water, 326.2 K	0.0122
in water, 331.1 K	0.0139
in water, 335.1 K	0.0154
